Several values for one entry are separate records, joined by “and”; a condition that tells them apart may be missing. Equal entries are not always repeated.
Assays:
Assay in all cases: radiometric filter-binding kinase assay, Kinase HotSpot
Settings in all cases: compound 0.5 µM; ATP 10 µM
[1] = molecular target: AURKA (human) (UniProt O14965)
[2] = molecular target: BMX (human) (UniProt P51813)
[3] = molecular target: BTK (human) (UniProt Q06187)
[4] = molecular target: CDK6 CCND3 (human) (UniProt P30281+Q00534)
[5] = molecular target: CHEK2 (human) (UniProt O96017)
[6] = molecular target: CSK (human) (UniProt P41240)
Chain of CSK (human) (P41240 whole entry, looked up): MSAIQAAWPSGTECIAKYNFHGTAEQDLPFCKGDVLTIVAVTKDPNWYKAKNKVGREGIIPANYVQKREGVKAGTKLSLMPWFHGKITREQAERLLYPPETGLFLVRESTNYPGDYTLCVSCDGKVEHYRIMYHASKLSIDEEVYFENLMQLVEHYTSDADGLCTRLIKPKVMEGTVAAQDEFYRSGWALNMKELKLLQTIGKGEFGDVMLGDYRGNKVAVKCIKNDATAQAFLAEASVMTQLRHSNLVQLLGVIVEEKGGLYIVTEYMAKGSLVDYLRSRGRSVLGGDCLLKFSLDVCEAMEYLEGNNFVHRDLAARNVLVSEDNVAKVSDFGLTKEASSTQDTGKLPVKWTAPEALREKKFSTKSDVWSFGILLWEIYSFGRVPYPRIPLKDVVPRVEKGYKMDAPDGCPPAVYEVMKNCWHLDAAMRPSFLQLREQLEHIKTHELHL

[7] = molecular target: CSNK2A1 (human) (UniProt P68400)
Chain of CSNK2A1 (human) (P68400 whole entry, looked up): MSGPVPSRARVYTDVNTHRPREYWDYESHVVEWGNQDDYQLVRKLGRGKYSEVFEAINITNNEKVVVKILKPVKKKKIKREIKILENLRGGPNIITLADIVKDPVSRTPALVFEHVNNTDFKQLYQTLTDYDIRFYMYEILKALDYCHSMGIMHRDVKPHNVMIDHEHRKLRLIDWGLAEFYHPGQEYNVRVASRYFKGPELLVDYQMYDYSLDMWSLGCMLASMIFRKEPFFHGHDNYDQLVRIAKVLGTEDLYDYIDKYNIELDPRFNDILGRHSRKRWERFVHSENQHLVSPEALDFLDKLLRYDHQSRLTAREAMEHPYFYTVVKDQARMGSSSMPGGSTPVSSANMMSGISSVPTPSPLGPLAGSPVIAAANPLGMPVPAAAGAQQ

[8] = molecular target: DAPK3 (human) (UniProt O43293)
[9] = molecular target: DMPK (human) (UniProt Q09013)
Chain of DMPK (human) (Q09013 whole entry, looked up): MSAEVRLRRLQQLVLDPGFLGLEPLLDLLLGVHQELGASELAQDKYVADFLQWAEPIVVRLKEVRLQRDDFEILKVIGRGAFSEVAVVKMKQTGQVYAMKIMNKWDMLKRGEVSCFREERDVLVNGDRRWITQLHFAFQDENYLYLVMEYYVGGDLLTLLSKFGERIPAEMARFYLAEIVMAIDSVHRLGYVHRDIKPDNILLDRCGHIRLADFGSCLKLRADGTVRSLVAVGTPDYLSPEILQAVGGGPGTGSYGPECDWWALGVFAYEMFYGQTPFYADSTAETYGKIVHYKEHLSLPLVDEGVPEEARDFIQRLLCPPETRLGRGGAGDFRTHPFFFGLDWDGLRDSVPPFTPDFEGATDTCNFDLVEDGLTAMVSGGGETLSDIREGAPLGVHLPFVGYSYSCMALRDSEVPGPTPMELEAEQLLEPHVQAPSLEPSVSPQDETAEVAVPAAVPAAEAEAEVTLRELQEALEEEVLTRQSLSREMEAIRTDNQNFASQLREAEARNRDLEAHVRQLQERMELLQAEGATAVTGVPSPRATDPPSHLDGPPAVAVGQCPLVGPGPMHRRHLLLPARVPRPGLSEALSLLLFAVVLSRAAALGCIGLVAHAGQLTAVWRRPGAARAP

[10] = molecular target: DYRK2 (human) (UniProt Q92630)
[11] = molecular target: EPHA5 (human) (UniProt P54756)
[12] = molecular target: EPHB4 (human) (UniProt P54760)
[13] = molecular target: FER (human) (UniProt P16591)
[14] = molecular target: FGFR2 (human) (UniProt P21802)
[15] = molecular target: FGFR4 (human) (UniProt P22455)
[16] = molecular target: GRK4 (human) (UniProt P32298)
[17] = molecular target: GRK7 (human) (UniProt Q8WTQ7)
[18] = molecular target: GSK3B (human) (UniProt P49841)
[19] = molecular target: HIPK1 (human) (UniProt Q86Z02)
[20] = molecular target: IRAK4 (human) (UniProt Q9NWZ3)
[21] = molecular target: JAK3 JH1 JH2 (human) (UniProt P52333)
[22] = molecular target: LYN (human) (UniProt P07948)
Chain of LYN (human) (P07948 whole entry, looked up): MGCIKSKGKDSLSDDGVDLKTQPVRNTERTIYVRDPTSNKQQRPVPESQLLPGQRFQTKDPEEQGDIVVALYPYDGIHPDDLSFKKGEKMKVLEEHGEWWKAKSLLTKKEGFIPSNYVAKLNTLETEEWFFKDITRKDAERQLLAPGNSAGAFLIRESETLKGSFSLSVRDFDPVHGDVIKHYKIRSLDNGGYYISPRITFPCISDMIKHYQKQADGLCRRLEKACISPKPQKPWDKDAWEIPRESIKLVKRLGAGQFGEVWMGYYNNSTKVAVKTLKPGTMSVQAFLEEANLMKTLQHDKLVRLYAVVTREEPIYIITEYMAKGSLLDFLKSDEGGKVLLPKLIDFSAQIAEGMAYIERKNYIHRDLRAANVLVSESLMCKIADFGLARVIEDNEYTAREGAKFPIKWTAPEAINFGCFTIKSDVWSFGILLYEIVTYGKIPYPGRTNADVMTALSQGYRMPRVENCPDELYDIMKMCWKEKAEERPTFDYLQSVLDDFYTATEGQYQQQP

[23] = molecular target: MAP3K8 (human) (UniProt P41279)
Chain of MAP3K8 (human) (P41279 whole entry, looked up): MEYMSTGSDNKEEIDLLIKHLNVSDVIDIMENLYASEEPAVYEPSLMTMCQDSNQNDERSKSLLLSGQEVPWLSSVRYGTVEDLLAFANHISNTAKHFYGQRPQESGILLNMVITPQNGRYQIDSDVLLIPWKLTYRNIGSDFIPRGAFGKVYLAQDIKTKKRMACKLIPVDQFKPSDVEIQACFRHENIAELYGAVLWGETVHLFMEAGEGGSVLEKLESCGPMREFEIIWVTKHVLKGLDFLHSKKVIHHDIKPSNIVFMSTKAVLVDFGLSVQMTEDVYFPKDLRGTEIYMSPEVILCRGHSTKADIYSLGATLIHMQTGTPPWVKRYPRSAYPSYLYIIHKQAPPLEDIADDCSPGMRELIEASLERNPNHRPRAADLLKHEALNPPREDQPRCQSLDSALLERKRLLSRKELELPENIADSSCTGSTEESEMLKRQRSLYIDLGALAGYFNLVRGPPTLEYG

[24] = molecular target: MAPK12 (human) (UniProt P53778)
[25] = molecular target: MARK2 (human) (UniProt Q7KZI7)
[26] = molecular target: MLTK (human) (UniProt Q9NYL2)
[27] = molecular target: MST1R (human) (UniProt Q04912)
[28] = molecular target: MYLK (human) (UniProt Q15746)
[29] = molecular target: NEK3 (human) (UniProt P51956)
Chain of NEK3 (human) (P51956 whole entry, looked up): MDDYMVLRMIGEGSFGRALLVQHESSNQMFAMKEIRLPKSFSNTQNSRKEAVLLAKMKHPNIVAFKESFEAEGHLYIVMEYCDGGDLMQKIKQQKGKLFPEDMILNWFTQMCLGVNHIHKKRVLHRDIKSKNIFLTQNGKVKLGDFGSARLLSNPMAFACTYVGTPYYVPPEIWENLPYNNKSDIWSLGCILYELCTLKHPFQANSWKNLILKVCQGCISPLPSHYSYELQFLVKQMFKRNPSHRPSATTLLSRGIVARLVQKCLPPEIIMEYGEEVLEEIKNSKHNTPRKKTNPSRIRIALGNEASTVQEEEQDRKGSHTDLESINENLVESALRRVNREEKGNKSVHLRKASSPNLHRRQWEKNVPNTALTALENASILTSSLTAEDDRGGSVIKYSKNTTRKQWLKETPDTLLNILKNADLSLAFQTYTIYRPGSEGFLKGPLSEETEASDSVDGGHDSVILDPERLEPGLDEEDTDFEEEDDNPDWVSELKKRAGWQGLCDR

[30] = molecular target: PKN1 (human) (UniProt Q16512)
[31] = molecular target: PLK1 (human) (UniProt P53350)
[32] = molecular target: PNCK (human) (UniProt Q6P2M8)
[33] = molecular target: PRKG1 (human) (UniProt Q13976)
[34] = molecular target: RPS6KA2 KD1 KD2 (human) (UniProt Q15349)
[35] = molecular target: RPS6KA4 KD2 (human) (UniProt O75676)
Chain of RPS6KA4 KD2 (human) (O75676 whole entry, looked up): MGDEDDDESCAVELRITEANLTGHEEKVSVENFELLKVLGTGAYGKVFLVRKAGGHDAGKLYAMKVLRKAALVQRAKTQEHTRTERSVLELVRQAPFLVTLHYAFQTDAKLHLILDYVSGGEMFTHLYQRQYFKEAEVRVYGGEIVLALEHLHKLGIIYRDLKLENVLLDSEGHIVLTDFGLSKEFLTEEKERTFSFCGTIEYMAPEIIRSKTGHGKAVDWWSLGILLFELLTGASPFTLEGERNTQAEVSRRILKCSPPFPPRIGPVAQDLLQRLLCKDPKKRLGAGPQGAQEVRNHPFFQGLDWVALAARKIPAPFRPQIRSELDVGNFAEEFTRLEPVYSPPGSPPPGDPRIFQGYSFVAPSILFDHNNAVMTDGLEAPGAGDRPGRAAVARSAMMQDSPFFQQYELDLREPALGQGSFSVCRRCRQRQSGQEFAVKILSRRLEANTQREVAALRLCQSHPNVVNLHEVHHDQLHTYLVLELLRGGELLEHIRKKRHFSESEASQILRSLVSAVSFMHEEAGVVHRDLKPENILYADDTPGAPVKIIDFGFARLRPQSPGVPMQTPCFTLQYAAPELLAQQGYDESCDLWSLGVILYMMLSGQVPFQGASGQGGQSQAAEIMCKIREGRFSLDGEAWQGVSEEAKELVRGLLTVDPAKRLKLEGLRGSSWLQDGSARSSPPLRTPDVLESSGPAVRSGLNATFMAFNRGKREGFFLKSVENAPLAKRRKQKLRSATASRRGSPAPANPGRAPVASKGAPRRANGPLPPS

[36] = molecular target: SGK2 (human) (UniProt Q9HBY8)
[37] = molecular target: SRC (human) (UniProt P12931)
[38] = molecular target: STK10 (human) (UniProt O94804)
[39] = molecular target: STK3 (human) (UniProt Q13188)
[40] = molecular target: TLK2 (human) (UniProt Q86UE8)
[41] = molecular target: TYRO3 (human) (UniProt Q06418)
[42] = molecular target: ULK3 (human) (UniProt Q6PHR2)

Chain of BMX (human) (P51813 whole entry, looked up): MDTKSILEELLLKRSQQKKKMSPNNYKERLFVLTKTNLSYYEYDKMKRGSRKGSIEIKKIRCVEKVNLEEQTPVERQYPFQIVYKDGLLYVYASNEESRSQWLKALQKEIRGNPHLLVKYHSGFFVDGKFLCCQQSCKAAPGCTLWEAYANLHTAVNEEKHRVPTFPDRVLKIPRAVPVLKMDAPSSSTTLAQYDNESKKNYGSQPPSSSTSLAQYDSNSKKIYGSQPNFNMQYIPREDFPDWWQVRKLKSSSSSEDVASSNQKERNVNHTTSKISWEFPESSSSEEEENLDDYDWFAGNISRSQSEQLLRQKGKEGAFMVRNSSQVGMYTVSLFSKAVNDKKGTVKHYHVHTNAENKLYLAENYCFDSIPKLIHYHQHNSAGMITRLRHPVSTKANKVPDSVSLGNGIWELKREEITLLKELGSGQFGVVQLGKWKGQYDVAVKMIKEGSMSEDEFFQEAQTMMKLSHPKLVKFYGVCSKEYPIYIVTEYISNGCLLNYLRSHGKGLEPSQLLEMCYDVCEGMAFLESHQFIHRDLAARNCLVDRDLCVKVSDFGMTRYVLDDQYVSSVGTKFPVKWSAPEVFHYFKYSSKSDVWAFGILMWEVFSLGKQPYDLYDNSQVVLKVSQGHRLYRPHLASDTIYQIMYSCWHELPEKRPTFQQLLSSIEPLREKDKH
Chain of AURKA (human) (O14965 whole entry, looked up): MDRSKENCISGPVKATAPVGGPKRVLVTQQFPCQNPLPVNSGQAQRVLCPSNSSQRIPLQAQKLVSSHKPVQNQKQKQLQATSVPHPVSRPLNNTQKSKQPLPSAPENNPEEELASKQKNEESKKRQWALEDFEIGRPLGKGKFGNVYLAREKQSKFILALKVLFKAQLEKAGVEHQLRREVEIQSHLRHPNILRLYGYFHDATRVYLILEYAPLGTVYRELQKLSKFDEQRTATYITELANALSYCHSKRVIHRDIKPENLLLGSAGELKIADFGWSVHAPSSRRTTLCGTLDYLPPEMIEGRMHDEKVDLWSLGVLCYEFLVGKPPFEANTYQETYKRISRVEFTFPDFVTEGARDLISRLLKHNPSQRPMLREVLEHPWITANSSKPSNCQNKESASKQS

CO[C@H]1CC2CC[C@@H](C)[C@@](O)(O2)C(=O)C(=O)N2CCCC[C@H]2C(=O)OC([C@H](C)C[C@@H]2CC[C@@H](O)[C@H](OC)C2)CC(=O)[C@H](C)/C=C(\C)[C@@H](O)[C@@H](OC)C(=O)[C@H](C)C[C@H](C)/C=C/C=C/C=C/1C (some centres not stated)
residual activity [1]: 81.5%
residual activity [2]: 96.6%
residual activity [3]: 101%
residual activity [4]: 105%
residual activity [5]: 99%
residual activity [6]: 101%
residual activity [7]: 94.7%
residual activity [8]: 104%
residual activity [9]: 109%
residual activity [10]: 100%
residual activity [11]: 94.7%
residual activity [12]: 89.5%
residual activity [13]: 92%
residual activity [14]: 110%
residual activity [15]: 76.6%
residual activity [16]: 96.1%
residual activity [17]: 98%
residual activity [18]: 109%
residual activity [19]: 99.1%
residual activity [20]: 123%
residual activity [21]: 92.4%
residual activity [22]: 100% and 105%
residual activity [23]: 99.8%
residual activity [24]: 107%
residual activity [25]: 104%
residual activity [26]: 103%
residual activity [27]: 97%
residual activity [28]: 102%
residual activity [29]: 99%
residual activity [30]: 96.2%
residual activity [31]: 97.8%
residual activity [32]: 95.4%
residual activity [33]: 91%
residual activity [34]: 89.5%
residual activity [35]: 91.8%
residual activity [36]: 101%
residual activity [37]: 96%
residual activity [38]: 97.7%
residual activity [39]: 105%
residual activity [40]: 94.4%
residual activity [41]: 98.5%
residual activity [42]: 85.6%

From the kinase profiling compilation of Christmann-Franck et al. (2016)
